Measurements from patent publication US20250333410A1, “COMPOUND FOR INHIBITING OR DEGRADING BCL6 AND USE THEREOF IN PHARMACEUTICS” (XIZANG HAISCO PHARMACEUTICAL CO., LTD., priority 2022, published 2025).

Key:
[1] = Pharmacokinetic test in mice; format: in vivo, ICR mice; conditions: i.g. 5 mg/kg; for AUC(0-t): male, ICR, mouse, po, mice plasma; for F: mice
Procedure: 3. Pharmacokinetic Test in Mice
1.1 Experimental animal: male ICR mice, 25-30 g, 6 mice/compound, purchased from Chengdu Ddossy Experimental Animals Co., Ltd.
1.2 Experimental design: on the day of the experiment, the ICR mice were randomly grouped according to their body weights. The animals were fasted but with water available for 12 to 14 h one day before the administration, and were fed 4 h after the administration.

Bcl6 [2] = biological target: T1, Bcl6 (Homo sapiens (Human), UniProt P41182); assay: Bcl-6 protein degradation experiment in OCI-LY1 cells; format: cell-based; conditions: 24 hours
Procedure: 4. Bcl-6 Protein Degradation Experiment in OCI-LY1 Cells
(§1) OCI-LY1 cells purchased from DSMZ were placed in an IMDM complete medium (containing 10% fetal bovine serum, 100 U/mL penicillin, 100 μg/mL streptomycin and 50 µM mercaptoethanol) and cultured at 37° C. and 5% CO2. The cells in the logarithmic growth phase were collected, and the cell suspension was adjusted to an appropriate density with the culture medium and added to a 6-well cell culture plate at a volume of 1 mL/well. The compounds to be tested were prepared to 2-fold the final concentration, 1 mL of the compounds at different concentrations were added to administration wells, a medium containing 0.2% DMSO was added to control wells, and the plate was incubated at 37° C. for 24 hours. The cells were collected into a 1.5 mL centrifuge tube, 25 L of RIPA lysis buffer (containing 1× protease inhibitor cocktail) was added, and the cells were lysed on ice for 15 minutes and centrifuged at 12000 rpm/min at 4° C. for 10 minutes. The supernatant was collected and the protein content was determined using the BCA method. The protein sample to be tested was diluted to 0.8 mg/mL, Bcl6 was detected using a fully automated protein expression quantitative analyzer (ProteinSimple), and the internal reference protein was R-actin (both antibodies were from CST). The software (Compass for SW) of the fully automated protein expression quantitative analyzer was used to process the raw data and calculate the peak area and the Bcl6 expression rate relative to the control group. DC50 values were calculated using a four-parameter non-linear fitting model in Graphpad 8.3.0 software.

Bcl6 [3] = biological target: T1, Bcl6; assay: Bcl-6 protein degradation experiment in Farage cells; format: cell-based; conditions: 24 hours
Procedure: 2. Bcl-6 Protein Degradation Experiment in Farage Cells
as §1, with “Farage cells” for “OCI-LY1 cells”, “from ATCC” for “from DSMZ”, “an RPMI-1640” for “an IMDM”, “U/mL penicillin and” for “U/mL penicillin,”, “μg/mL streptomycin)” for “μg/mL streptomycin and 50 µM mercaptoethanol)”, “25 μL” for “25 L”

Structure (SMILES)	AUC(0-t) [1] [ng·h/mL]	DC50 (Bcl6 [2]) [nM]	F [1] [%]	DC50 (Bcl6 [3]) [nM]	DC50 (Bcl6 [2]; listed as trifluoroacetate of compound 24) [nM]	DC50 (Bcl6 [2]; listed as trifluoroacetate of compound 57) [nM]	DC50 (Bcl6 [2]; listed as trifluoroacetate of compound 58) [nM]
CC(=O)COc1cc2cc(Nc3nc(N4CCC(N5CCN(c6ccc(C7CCC(=O)NC7=O)cc6)CC5)CC4)ncc3Cl)ccc2n(C)c1=O (stereo not drawn) [Compound 15]	> 1000	< 100	–	–	–	–	–
CNC(=O)COc1cc2cc(Nc3nc(N4CCC(N5CCN(c6ccc(C7CCC(=O)NC7=O)cc6)CC5)CC4)ncc3Cl)ccc2n(C)c1=O (stereo not drawn) [Compound 16]	–	< 100	–	–	–	–	–
CC(=O)COc1cc2cc(Nc3nc(N4CCC(C5CCN(c6ccc(C7CCC(=O)NC7=O)cc6)CC5)CC4)ncc3Cl)ccc2n(C)c1=O (stereo not drawn) [Compound 18]	–	< 100	–	–	–	–	–
[2H]C([2H])([2H])n1c(=O)c(OCC(=O)NC)cc2cc(Nc3nc(N4CCC(CN5CCN6c7cc(F)c(C8CCC(=O)NC8=O)cc7CC[C@H]6C5)CC4)ncc3Cl)ccc21 (stereo partly drawn) [Trifluoroacetate of compound 65]	> 1000	–	–	< 10	–	–	–
[2H]C([2H])([2H])NC(=O)COc1cc2cc(Nc3nc(N4CCC(CN5CCN6c7cc(F)c(C8CCC(=O)NC8=O)cc7CC[C@H]6C5)CC4)ncc3Cl)ccc2n(C([2H])([2H])[2H])c1=O (stereo partly drawn) [Trifluoroacetate of compound 66]	> 1000	–	>50	< 10	–	–	–

Next, values leading:

AUC(0-t) [1] [ng·h/mL]	DC50 (Bcl6 [2]) [nM]	F [1] [%]	DC50 (Bcl6 [3]) [nM]	DC50 (Bcl6 [2]; listed as trifluoroacetate of compound 24) [nM]	DC50 (Bcl6 [2]; listed as trifluoroacetate of compound 57) [nM]	DC50 (Bcl6 [2]; listed as trifluoroacetate of compound 58) [nM]	Structure (SMILES)
> 1000	< 100	>50	< 10	< 5	–	–	CNC(=O)COc1cc2cc(Nc3nc(N4CCN(CC5CCN(c6ccc(C7CCC(=O)NC7=O)c(F)c6)CC5)CC4)ncc3Cl)ccc2n(C)c1=O (stereo not drawn) [Trifluoroacetate of compound 24]
> 1000	< 100	–	< 10	–	< 5	–	CNC(=O)COc1cc2cc(Nc3nc(N4CCC(CN5CCN6c7cc(F)c(C8CCC(=O)NC8=O)cc7CC[C@H]6C5)CC4)ncc3Cl)ccc2n(C(C)C)c1=O (stereo partly drawn) [Trifluoroacetate of compound 57]
> 1000	< 100	>50	< 10	–	–	< 5	CNC(=O)COc1cc2cc(Nc3nc(N4CCC(O[C@H]5C[C@H](N6CCN7c8cc(F)c(C9CCC(=O)NC9=O)cc8CC[C@H]7C6)C5)CC4)ncc3Cl)ccc2n(C(C)C)c1=O (stereo partly drawn) [Trifluoroacetate of compound 58]
> 1000	–	>50	< 10	–	–	–	[2H]C([2H])([2H])n1c(=O)c(OCC(=O)NC)cc2cc(Nc3nc(N4CCC(CN5CCN6c7cc(F)c(C8CCC(=O)NC8=O)cc7CC[C@@H]6C5)CC4)ncc3Cl)ccc21 (stereo partly drawn) [Trifluoroacetate of compound 62]
> 1000	–	–	< 10	–	–	–	[2H]C([2H])([2H])NC(=O)COc1cc2cc(Nc3nc(N4CCC(CN5CCN6c7cc(F)c(C8CCC(=O)NC8=O)cc7CC[C@@H]6C5)CC4)ncc3Cl)ccc2n(C([2H])([2H])[2H])c1=O (stereo partly drawn) [Trifluoroacetate of compound 63]
> 1000	–	–	< 10	–	–	–	[2H]C([2H])([2H])NC(=O)COc1cc2cc(Nc3nc(N4CCC(CN5CCN6c7cc(F)c(C8CCC(=O)NC8=O)cc7CC[C@@H]6C5)CC4)ncc3Cl)ccc2n(C)c1=O (stereo partly drawn) [Trifluoroacetate of compound 64]
